Measured values published in ChEMBL document CHEMBL4417631, “Oral peptide inhibitors of interleukin-23 receptor and their use to treat inflammatory bowel diseases” (2017).
pIC50: −log10 of the molar value. *1 amine or outer side, *2 acyl side, *3 side chain or, on linkers, in order; H or OH if unused. Where a SMILES comes first, the peptide text is derived from it. Bridges are numbered along the chain shown (N, C = ends). Roman numbers before positions name the chains, in order. [ ]: non-standard residue; d: D form. Phe(3,4-(OMe)2) = COc1ccc(C[C@H](N)C(=O)O)cc1OC; Phe(4-CONH2) = NC(=O)c1ccc(C[C@H](N)C(=O)O)cc1; Abu(4-yl) = O=C([C@H](CC[*:3])N[*:1])[*:2]; 2Nal = N[C@@H](Cc1ccc2ccccc2c1)C(=O)O; Diglycolyl = O=C(COCC(=O)[*:2])[*:1]; AEF = NCCOc1ccc(C[C@H](N)C(=O)O)cc1; Pen = CC(C)(S)[C@H](N)C(=O)O; αMeV = CC(C)[C@](C)(N)C(=O)O; Aib = CC(C)(N)C(=O)O

What was measured:
[1] = target: T1, Interleukin-23 receptor (Homo sapiens, UniProt Q5VWK5); test: Inhibition of interleukin-23 receptor in human DB cells assessed as reduction in IL-23-stimulated STAT3 phosphorylation incubated for 30 mins by HTRF assay; assay type: cell-based
T1 sequence (Q5VWK5 whole entry): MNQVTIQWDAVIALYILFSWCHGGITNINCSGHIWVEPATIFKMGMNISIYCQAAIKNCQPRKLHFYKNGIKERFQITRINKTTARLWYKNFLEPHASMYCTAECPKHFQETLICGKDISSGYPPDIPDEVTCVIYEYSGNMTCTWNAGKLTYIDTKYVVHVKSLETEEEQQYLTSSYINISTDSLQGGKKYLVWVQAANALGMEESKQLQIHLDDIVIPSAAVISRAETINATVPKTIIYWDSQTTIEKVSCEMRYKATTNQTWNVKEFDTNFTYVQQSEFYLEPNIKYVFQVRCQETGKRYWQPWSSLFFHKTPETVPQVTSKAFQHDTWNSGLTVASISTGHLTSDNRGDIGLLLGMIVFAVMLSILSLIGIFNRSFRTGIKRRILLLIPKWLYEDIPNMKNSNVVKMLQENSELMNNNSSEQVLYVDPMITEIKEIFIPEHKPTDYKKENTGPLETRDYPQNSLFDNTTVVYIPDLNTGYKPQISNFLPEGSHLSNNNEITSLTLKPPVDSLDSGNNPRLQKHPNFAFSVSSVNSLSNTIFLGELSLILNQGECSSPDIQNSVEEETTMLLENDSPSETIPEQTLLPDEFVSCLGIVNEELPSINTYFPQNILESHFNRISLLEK

[2] = target: T1, Interleukin-23 receptor; test: Inhibition of interleukin-23 binding to human interleukin-23 receptor incubated for 2 hrs by competitive binding ELISA

pIC50 [1] | pIC50 [2] | SMILES
7.00 to 7.60 | 6.00 to 7.00 | COc1ccc(C[C@H](NC(=O)[C@@H](NC(=O)[C@H](CCC(N)=O)NC(=O)[C@H](Cc2c[nH]c3ccccc23)NC(=O)[C@@H](NC(=O)[C@H](CCC(N)=O)NC(=O)[C@@H](NC(C)=O)C(C)(C)S)[C@@H](C)O)C(C)(C)S)C(=O)N[C@@H](Cc2ccc3ccccc3c2)C(=O)N[C@@](C)(CCCN)C(=O)N[C@@H](CCCCNC(C)=O)C(=O)N[C@@H](CC(N)=O)C(=O)NCC(N)=O)cc1
> 8.00 | 7.60 to 8.00 | CC(=O)N[C@H](C(=O)NCC(=O)N[C@H](C(=O)N[C@@H](Cc1c[nH]c2ccccc12)C(=O)N[C@@H](CCC(N)=O)C(=O)N[C@H](C(=O)N[C@@H](Cc1ccc(OCCN)cc1)C(=O)N[C@@H](Cc1ccc2ccccc2c1)C(=O)N[C@@](C)(CCCCN)C(=O)N[C@@H](CCC(=O)O)C(=O)N[C@@H](CC(N)=O)C(=O)NCC(N)=O)C(C)(C)S)[C@@H](C)O)C(C)(C)S
6.00 to 7.00 | 6.00 to 7.00 | CC(=O)N[C@@H](CS)C(=O)N[C@H](C(=O)N[C@@H](CC(=O)O)C(=O)N[C@@H](Cc1c[nH]c2ccccc12)C(=O)N[C@@H](CCCCN)C(=O)N[C@@H](CS)C(=O)N[C@@H](Cc1ccc(O)cc1)C(=O)N[C@@H](Cc1c[nH]c2ccccc12)C(=O)N[C@@H](Cc1cnc[nH]1)C(=O)N[C@H](C(=O)N[C@@H](Cc1ccccc1)C(=O)NCC(N)=O)[C@@H](C)O)[C@@H](C)O
6.00 to 7.00 | 6.00 to 7.00 | CC(=O)N[C@@H](CS)C(=O)N[C@@H](C)C(=O)N[C@@H](CC(=O)O)C(=O)N[C@@H](Cc1c[nH]c2ccccc12)C(=O)N[C@H](C(=O)N[C@@H](CS)C(=O)N[C@@H](Cc1ccc(O)cc1)C(=O)N[C@@H](Cc1c[nH]c2ccccc12)C(=O)N[C@@H](Cc1cnc[nH]1)C(=O)N[C@H](C(=O)N[C@@H](Cc1ccccc1)C(=O)NCC(=O)N[C@H](CCCCN)C(=O)O)[C@@H](C)O)C(C)C
> 8.00 |  | CC(=O)NCCCC[C@H](NC(=O)[C@H](CCC(C)C)NC(=O)[C@H](Cc1ccc2ccccc2c1)NC(=O)[C@H](Cc1ccc(OCCN)cc1)NC(=O)[C@@H](NC(=O)[C@H](CCC(N)=O)NC(=O)[C@H](Cc1c[nH]c2ccccc12)NC(=O)[C@@H](NC(=O)[C@H](CCC(N)=O)NC(=O)[C@@H](NC(C)=O)C(C)(C)S)[C@@H](C)O)C(C)(C)S)C(=O)N[C@@H](CC(N)=O)C(=O)NCCC(N)=O
7.60 to 8.00 |  | COc1ccc(C[C@H](NC(=O)[C@H](Cc2ccc(C(N)=O)cc2)NC(=O)[C@@H](NC(=O)[C@H](CCC(N)=O)NC(=O)[C@H](Cc2c[nH]c3ccccc23)NC(=O)[C@@H](NC(=O)[C@H](CCC(N)=O)NC(=O)[C@@H](NC(C)=O)C(C)(C)S)[C@@H](C)O)C(C)(C)S)C(=O)N[C@](C)(C(=O)N[C@@H](CCCCNC(C)=O)C(=O)N[C@@H](CC(N)=O)C(=O)N[C@@H](CC(N)=O)C(N)=O)C(C)C)cc1OC (Ac-[Pen]QTWQ[Pen][Phe(4-CONH2)][Phe(3,4-(OMe)2)][αMeV]K(Ac)NN-NH2)

The remaining lines, values behind:

SMILES | pIC50 [1] | pIC50 [2]
CC(=O)N[C@H](C(=O)N[C@H](C(=O)N[C@H](C(=O)N[C@@H](Cc1c[nH]c2ccccc12)C(=O)N[C@@H](CCC(N)=O)C(=O)N[C@H](C(=O)N[C@@H](Cc1ccc(OCCN)cc1)C(=O)N[C@@H](Cc1ccc2ccccc2c1)C(=O)N[C@@](C)(CCCCN)C(=O)N[C@@H](CCC(=O)O)C(=O)N[C@@H](CC(N)=O)C(=O)NCC(N)=O)C(C)(C)S)[C@@H](C)O)[C@@H](C)O)C(C)(C)S | > 8.00 | 7.60 to 8.00
CC(=O)N[C@H](C(=O)N[C@@H](CO)C(=O)N[C@H](C(=O)N[C@@H](Cc1c[nH]c2ccccc12)C(=O)N[C@@H](CCC(N)=O)C(=O)N[C@H](C(=O)N[C@@H](Cc1ccc(OCCN)cc1)C(=O)N[C@@H](Cc1ccc2ccccc2c1)C(=O)N[C@@](C)(CCCCN)C(=O)N[C@@H](CCC(=O)O)C(=O)N[C@@H](CC(N)=O)C(=O)NCC(N)=O)C(C)(C)S)[C@@H](C)O)C(C)(C)S | > 8.00 | 7.60 to 8.00
CC(=O)NCCCC[C@H](NC(=O)[C@](C)(CCCCN)NC(=O)[C@H](Cc1c[nH]c2ccccc12)NC(=O)[C@H](Cc1ccc(OCCN)cc1)NC(=O)[C@@H]1CSCC[C@H](NC(C)=O)C(=O)N[C@@H](CCC(N)=O)C(=O)N[C@@H]([C@@H](C)O)C(=O)N[C@@H](Cc2c[nH]c3ccccc23)C(=O)N[C@@H](CCC(N)=O)C(=O)N1)C(=O)NC1CNC(=O)CNC1=O (stereo partly drawn) | > 8.00 | 7.00 to 7.60
CC(=O)N[C@H](C(=O)N[C@@H](CCC(N)=O)C(=O)N[C@H](C(=O)N[C@@H](Cc1c[nH]c2ccccc12)C(=O)N[C@@H](CCC(N)=O)C(=O)N[C@H](C(=O)N[C@@H](Cc1ccc(OCCN)cc1)C(=O)N[C@@H](Cc1ccc2ccccc2c1)C(=O)N[C@@](C)(CCCCN)C(=O)N[C@@H](CCC(=O)O)C(=O)N[C@@H](CC(N)=O)C(=O)NCC(N)=O)C(C)(C)S)[C@@H](C)O)C(C)(C)S | > 8.00 | 7.60 to 8.00
CC(=O)N[C@H]1CCSC[C@@H](C(=O)N[C@@H](Cc2ccc(F)c(F)c2)C(=O)N[C@@H](Cc2ccc3ccccc3c2)C(=O)NC(C)(C)C(=O)N[C@@H](CCC(=O)O)C(=O)N[C@@H](CC(N)=O)C(=O)NCC(N)=O)NC(=O)[C@H](CCC(N)=O)NC(=O)[C@H](Cc2c[nH]c3ccccc23)NC(=O)[C@H]([C@@H](C)O)NC(=O)[C@H](CCC(N)=O)NC1=O | 7.60 to 8.00 | 7.00 to 7.60
CC(=O)N[C@H]1CCSC[C@@H](C(=O)N[C@@H](Cc2ccc(OCCNC(=O)COCC(=O)NCCOc3ccc(C[C@H](NC(=O)[C@@H]4CSCC[C@H](NC(C)=O)C(=O)N[C@@H](CCC(N)=O)C(=O)N[C@@H]([C@@H](C)O)C(=O)N[C@@H](Cc5c[nH]c6ccccc56)C(=O)N[C@@H](CCC(N)=O)C(=O)N4)C(=O)N[C@@H](Cc4ccc5ccccc5c4)C(=O)NC(C)(C)C(=O)N[C@@H](CCC(N)=O)C(=O)N[C@@H](CC(N)=O)C(=O)NCC(N)=O)cc3)cc2)C(=O)N[C@@H](Cc2ccc3ccccc3c2)C(=O)NC(C)(C)C(=O)N[C@@H](CCC(N)=O)C(=O)N[C@@H](CC(N)=O)C(=O)NCC(N)=O)NC(=O)[C@H](CCC(N)=O)NC(=O)[C@H](Cc2c[nH]c3ccccc23)NC(=O)[C@H]([C@@H](C)O)NC(=O)[C@H](CCC(N)=O)NC1=O (I: Ac-[Abu(4-yl)]QTWQC[AEF][2Nal][Aib]QNG-NH2 / II: Ac-[Abu(4-yl)]QTWQC[AEF][2Nal][Aib]QNG-NH2; thioether I:1-I:6, II:1-II:6; linker I:7-II:7 via Diglycolyl) | 7.60 to 8.00 | 7.00 to 7.60
CC(=O)NCCOc1ccc(C[C@H](NC(=O)[C@@H](NC(=O)[C@H](CCC(N)=O)NC(=O)[C@H](Cc2c[nH]c3ccccc23)NC(=O)[C@@H](NC(=O)[C@H](CCC(N)=O)NC(=O)[C@@H](NC(C)=O)C(C)(C)S)[C@@H](C)O)C(C)(C)S)C(=O)N[C@@H](Cc2ccc3ccccc3c2)C(=O)N[C@](C)(C(=O)N[C@@H](CCCCN)C(=O)N[C@@H](CC(N)=O)C(=O)N[C@@H](CC(N)=O)C(N)=O)C(C)C)cc1 | > 8.00 | 
CC(=O)NCCCC[C@H](NC(=O)[C@](C)(CCCCN)NC(=O)[C@H](Cc1ccc2ccccc2c1)NC(=O)[C@H](Cc1ccc(OCCN)cc1)NC(=O)[C@@H]1CSCC[C@H](NC(C)=O)C(=O)N[C@@H](CCC(N)=O)C(=O)N[C@@H]([C@@H](C)O)C(=O)N[C@@H](Cc2c[nH]c3ccccc23)C(=O)N[C@@H](CCC(N)=O)C(=O)N1)C(=O)N[C@@H](CC(=O)NCCCCN)C(=O)NCC(N)=O | 7.00 to 7.60 | 
CC(=O)NCCCC[C@H](NC(=O)C(C)(C)NC(=O)[C@H](Cc1ccc2ccccc2c1)NC(=O)[C@H](Cc1ccc(OCCN)cc1)NC(=O)[C@@H](NC(=O)[C@H](CCC(N)=O)NC(=O)[C@H](Cc1c[nH]c2ccccc12)NC(=O)[C@@H](NC(=O)[C@H](CCC(N)=O)NC(=O)[C@@H](NC(=O)[C@@H](CCCNC(=N)N)NC(C)=O)C(C)(C)S)[C@@H](C)O)C(C)(C)S)C(=O)N[C@@H](CC(N)=O)C(=O)N[C@@H](CC(N)=O)C(N)=O | > 8.00 | 
COc1ccc(C[C@H](NC(=O)[C@@H](NC(=O)[C@H](CCC(N)=O)NC(=O)[C@H](Cc2c[nH]c3ccccc23)NC(=O)[C@@H](NC(=O)[C@H](CC(N)=O)NC(=O)[C@@H](NC(C)=O)C(C)(C)S)[C@@H](C)O)C(C)(C)S)C(=O)N[C@@H](Cc2ccc3ccccc3c2)C(=O)NC(C)(C)C(=O)N[C@@H](CCCCNC(C)=O)C(=O)N[C@@H](CC(N)=O)C(=O)N[C@@H](C)C(N)=O)cc1 | > 8.00 | 
CC(=O)NCCCC[C@H](NC(=O)[C@H](CCCCN)NC(=O)[C@H](Cc1ccc2ccccc2c1)NC(=O)[C@H](Cc1ccc(OCCNC(C)=O)cc1)NC(=O)[C@@H](NC(=O)[C@H](CCC(N)=O)NC(=O)[C@H](Cc1c[nH]c2ccccc12)NC(=O)[C@@H](NC(=O)[C@H](CCC(N)=O)NC(=O)[C@@H](NC(C)=O)C(C)(C)S)[C@@H](C)O)C(C)(C)S)C(=O)N[C@@H](CC(N)=O)C(=O)N[C@@H](CC(N)=O)C(N)=O | 7.00 to 7.60 | 
CC(=O)NCCCC[C@H](NC(=O)C(C)(C)NC(=O)[C@H](Cc1ccc2ccccc2c1)NC(=O)[C@H](Cc1ccc(OCCN)cc1)NC(=O)[C@@H](NC(=O)[C@H](CCC(N)=O)NC(=O)[C@H](Cc1c[nH]c2ccccc12)NC(=O)[C@@H](NC(=O)[C@H](CCC(N)=O)NC(=O)[C@@H](NC(=O)[C@@H](Cc1ccccc1)NC(C)=O)C(C)(C)S)[C@@H](C)O)C(C)(C)S)C(=O)N[C@@H](CC(N)=O)C(=O)N[C@@H](CC(N)=O)C(N)=O | > 8.00 | 
